Laboratory results taken from ChEMBL document CHEMBL1122346, “Antihypertensive activity of 6-arylpyrido[2,3-d]pyrimidin-7-amine derivatives. 2. 7-Acyl amide analogues” (J Med Chem, 1983).

What was measured:
Type in all cases: functional
[1] = test system: Rattus norvegicus; assay: Antihypertensive activity in conscious spontaneously hypertensive rats 24 hr following 50 mg/kg p.o.; No significant reduction.; details: route oral
[2] = test system: Rattus norvegicus; assay: Antihypertensive activity in conscious spontaneously hypertensive rats 2 hr following 50 mg/kg p.o.; No significant reduction.; details: route oral
[3] = test system: Rattus norvegicus; assay: Antihypertensive activity in conscious spontaneously hypertensive rats 10 hr following 50 mg/kg p.o.; No significant reduction.; details: route oral
[4] = test system: Rattus norvegicus; assay: Antihypertensive activity rating in conscious SHR after 24 h post dose at 50 mg/kg (po); Range 20-30%
[5] = test system: Rattus norvegicus; assay: Antihypertensive activity rating in conscious SHR after 2 hr post dose at 50 mg/kg (po); Range 10-20%
[6] = test system: Rattus norvegicus; assay: Antihypertensive activity in conscious spontaneously hypertensive rats 10 hr following 50 mg/kg p.o.; Range 10-20%.; details: route oral
[7] = organism: Rattus norvegicus; assay: Maximum percent decrease in blood pressure in SHR ( hour post dose in parentheses)
[8] = test system: Rattus norvegicus; assay: Antihypertensive activity rating in conscious SHR after 24 hr post dose at 50 mg/kg (po); Range 10-20%
[9] = test system: Rattus norvegicus; assay: Antihypertensive activity rating in conscious SHR after 24 h post dose at 10 mg/kg (po); 0=No significant reduction
[10] = test system: Rattus norvegicus; assay: Antihypertensive activity rating in conscious SHR after 2 hr post dose at 10 mg/kg (po); Range 10-20%
[11] = test system: Rattus norvegicus; assay: Antihypertensive activity rating in conscious SHR after 10 hr post dose at 10 mg/kg (po); 0=No significant reduction
[12] = test system: Rattus norvegicus; assay: Antihypertensive activity rating in conscious SHR after 10 hr post dose at 50 mg/kg (po); Range 20-30%
[13] = test system: Rattus norvegicus; assay: Antihypertensive activity rating in conscious SHR after 2 hr post dose at 50 mg/kg (po); Range 20-30%
[14] = test system: Rattus norvegicus; assay: Antihypertensive activity rating in conscious SHR after 10 hr post dose at 10 mg/kg (po); Range 10-20%
[15] = test system: Rattus norvegicus; assay: Antihypertensive activity rating in conscious SHR after 2 hr post dose at 10 mg/kg (po); 0=No significant reduction
[16] = test system: Rattus norvegicus; assay: Antihypertensive activity rating in conscious SHR after 24-72 hr post dose at 10 mg/kg (po); Range 10-20%

Row | Compound | Activity rating [1] [%] | Activity rating [2] [%] | Activity rating [3] [%] | Activity rating [6] [%] | Decrease [7] [%] | Activity rating [9] [%] | other results
1 | Cc1ncc2cc(-c3c(Cl)cccc3Cl)c(=O)n(C)c2n1 | 0 | 0 | 0 |  |  |  | 
2 | Cc1ncc2cc(-c3c(Cl)cccc3Cl)c(NC(=O)N(C)C)nc2n1 |  |  |  | 10 | 26 |  | Activity rating [4]: 20%; Activity rating [5]: 10%
3 | Cc1ncc2cc(-c3c(Cl)cccc3Cl)c(NC(=O)CNC(=O)OCc3ccccc3)nc2n1 |  |  |  |  | 29 | 0 | Activity rating [5]: 10%; Activity rating [8]: 10%; Activity rating [10]: 10%; Activity rating [11]: 0%; Activity rating [12]: 20%
4 | CNC(=O)Nc1nc2nc(C)ncc2cc1-c1c(Cl)cccc1Cl | 0 |  |  | 10 | 26 |  | Activity rating [13]: 20%
5 | COc1ccc(C(=O)Nc2nc3nc(C)ncc3cc2-c2c(Cl)cccc2Cl)cc1OC |  |  |  |  | 16 | 0 | Activity rating [14]: 10%; Activity rating [10]: 10%
6 | Cc1ncc2cc(-c3c(Cl)cccc3Cl)c(NC(=O)c3ccccc3F)nc2n1 |  |  |  |  |  | 0 | Activity rating [15]: 0%; Activity rating [11]: 0%
7 | CC(=O)Nc1nc2ncncc2cc1-c1ccccc1C | 0 | 0 | 0 |  |  |  | 
8 | CC(=O)Nc1nc2nc(C3CC3)ncc2cc1-c1c(Cl)cccc1Cl | 0 |  |  | 10 | 24 |  | Activity rating [5]: 10%
9 | Cc1ncc2cc(-c3c(Cl)cccc3Cl)c(NC(=O)C(Cl)Cl)nc2n1 |  |  |  |  | 16 | 0 | Activity rating [14]: 10%; Activity rating [10]: 10%
10 | C/N=C(\N)Nc1nc2nc(C)ncc2cc1-c1c(Cl)cccc1Cl | 0 |  |  | 10 | 24 |  | Activity rating [13]: 20%
11 | Cc1ncc2cc(-c3c(Cl)cccc3Cl)c(NC(=O)C(C)(C)C)nc2n1 |  |  |  |  |  | 0 | Activity rating [15]: 0%; Activity rating [11]: 0%
12 | C/N=C(\S)Nc1nc2nc(C)ncc2cc1-c1c(Cl)cccc1Cl | 0 | 0 |  | 10 | 12 |  | 
13 | Cc1ncc2cc(-c3c(Cl)cccc3Cl)c(NC(=O)OC(C)C)nc2n1 |  |  |  |  | 15 | 0 | Activity rating [14]: 10%; Activity rating [15]: 0%
14 | Cc1ncc2cc(-c3c(Cl)cccc3Cl)c(NC(=O)CN(C)C)nc2n1 |  |  |  |  | 18 | 0 | Activity rating [14]: 10%; Activity rating [10]: 10%
15 | C=CCNC(=O)Nc1nc2nc(C)ncc2cc1-c1c(Cl)cccc1Cl | 0 | 0 |  | 10 | 13 |  | 
16 | CN/C(=N/c1nc2nc(C)ncc2cc1-c1c(Cl)cccc1Cl)SC | 0 | 0 | 0 |  |  |  | 
17 | COc1ccccc1C(=O)Nc1nc2nc(C)ncc2cc1-c1c(Cl)cccc1Cl |  |  |  |  |  | 0 | Activity rating [15]: 0%; Activity rating [11]: 0%
18 | CC(=O)Nc1nc2nc(C)ncc2cc1-c1ccccc1C | 0 | 0 | 0 |  |  |  | 
19 | Cc1ncc2cc(-c3c(Cl)cccc3Cl)c(NS(C)(=O)=O)nc2n1 |  |  |  | 10 | 22 | 0 | Activity rating [4]: 20%; Activity rating [5]: 10%; Activity rating [15]: 0%; Activity rating [11]: 0%
20 | Cc1ncc2cc(-c3c(Cl)cccc3Cl)c(NC(=O)c3ccccc3C)nc2n1 |  | 0 |  | 10 | 23 |  | Activity rating [8]: 10%

Row | Compound | Activity rating [1] [%] | Activity rating [2] [%] | Activity rating [3] [%] | Activity rating [6] [%] | Decrease [7] [%] | Activity rating [9] [%] | other results
21 | CC(=O)Nc1nc2nc(C)nc(C)c2cc1-c1c(Cl)cccc1Cl | 0 |  | 0 |  | 20 |  | Activity rating [13]: 20%
22 | Cc1ncc2cc(-c3c(Cl)cccc3Cl)c(NC(N)=O)nc2n1 | 0 | 0 | 0 |  | 16 |  | 
23 | CCSCC(=O)Nc1nc2nc(C)ncc2cc1-c1c(Cl)cccc1Cl |  |  |  |  | 19 | 0 | Activity rating [10]: 10%; Activity rating [11]: 0%
24 | C/N=C(\NC)Nc1nc2nc(C)ncc2cc1-c1c(Cl)cccc1Cl | 0 |  |  | 10 | 24 |  | Activity rating [13]: 20%
25 | Cc1ncc2cc(-c3c(Cl)cccc3Cl)c(NC(=O)Cc3c(Cl)cccc3Cl)nc2n1 |  |  |  |  |  | 0 | Activity rating [15]: 0%; Activity rating [11]: 0%
26 | COc1ccc(CC(=O)Nc2nc3nc(C)ncc3cc2-c2c(Cl)cccc2Cl)cc1OC |  |  |  |  |  | 0 | Activity rating [15]: 0%; Activity rating [11]: 0%
27 | Cc1ncc2cc(-c3c(Cl)cccc3Cl)c(NC(=O)c3ccccc3)nc2n1 |  |  |  |  | 30 |  | Activity rating [4]: 20%; Activity rating [13]: 20%; Activity rating [12]: 20%
28 | CC(=O)Nc1nc2ncncc2cc1-c1c(Cl)cccc1Cl | 0 |  |  | 10 | 16 |  | Activity rating [5]: 10%
29 | Cc1ncc2cc(-c3c(Cl)cccc3Cl)c(NC(=O)Nc3ccccc3)nc2n1 | 0 | 0 | 0 |  |  |  | 
30 | Cc1ncc2cc(-c3c(Cl)cccc3Cl)c(NC(=O)C(C)C)nc2n1 |  |  |  |  | 15 | 0 | Activity rating [10]: 10%; Activity rating [11]: 0%
31 | CCNC(=O)Nc1nc2nc(C)ncc2cc1-c1c(Cl)cccc1Cl | 0 | 0 | 0 |  |  |  | 
32 | Cc1ncc2cc(-c3c(Cl)cccc3Cl)c(NC(=O)c3cccc(N(C)C)c3)nc2n1 |  | 0 |  | 10 | 15 |  | Activity rating [8]: 10%
33 | Cc1ncc2cc(-c3c(Cl)cccc3Cl)c(NC(=O)Cc3ccccc3)nc2n1 |  |  |  | 10 | 17 |  | Activity rating [5]: 10%; Activity rating [8]: 10%
34 | CC(=O)Nc1nc2nc(C)nc(NC(C)=O)c2cc1-c1c(Cl)cccc1Cl | 0 | 0 | 0 |  |  |  | 
35 | CC(=O)Nc1nc2nc(C)nc(C)c2cc1-c1ccccc1C | 0 | 0 | 0 |  |  |  | 
36 | Cc1ncc2cc(-c3c(Cl)cccc3Cl)c(NC(=O)c3ccccn3)nc2n1 |  |  |  |  | 29 |  | Activity rating [14]: 10%; Activity rating [4]: 20%; Activity rating [5]: 10%; Activity rating [16]: 10%; Activity rating [12]: 20%
37 | Cc1ncc2cc(-c3c(Cl)cccc3Cl)c(NC(=O)C3CC3)nc2n1 | 0 | 0 | 0 |  |  |  | 
38 | Cc1ncc2cc(-c3c(Cl)cccc3Cl)c(/N=C/N(C)C)nc2n1 |  | 0 |  | 10 | 17 |  | Activity rating [8]: 10%
39 | C/C(=N\c1nc2nc(C)ncc2cc1-c1c(Cl)cccc1Cl)N(C)C |  |  | 0 |  | 18 |  | Activity rating [5]: 10%; Activity rating [8]: 10%
